Data reported in ChEMBL document CHEMBL5380831, “Azolylpyrimidinediols as Novel Structural Scaffolds of DNA-Groove Binders against Intractable Acinetobacter baumannii” (J Med Chem, 2023).
Values after ≈ are worked out from the molar mass of the structure shown. Active and inactive are the calls of the source. The calls are words filed in the database; no cut-off is given here.

What was measured:
[1] = MRT (0 to infinity) in Kunming mouse at 10 mg/kg, iv measured upto 24 hrs by LC-MS analysis; type: ADME, organism-based; details: in vivo
[2] = Cmax in Kunming mouse at 10 mg/kg, iv measured upto 24 hrs by LC-MS analysis; type: ADME, organism-based; set-up: dose 10 mg/kg, time < 24 hrs, route iv; details: in vivo
[3] = C0 in Kunming mouse at 10 mg/kg, iv measured upto 24 hrs by LC-MS analysis; type: ADME, organism-based; details: in vivo
Pseudomonas aeruginosa [4] = assay: Antibacterial activity against Pseudomonas aeruginosa ATCC 27853 assessed as bacterial growth inhibition incubated for 24 hrs by broth microdilution method; type: functional
[5] = AUMC (0 to infinity) in Kunming mouse at 10 mg/kg, po measured upto 24 hrs by LC-MS analysis; type: ADME, organism-based; details: in vivo
[6] = Half life in Kunming mouse at 10 mg/kg, po measured upto 24 hrs by LC-MS analysis; type: ADME, organism-based; details: in vivo
[7] = AUMC (0 to t) in Kunming mouse at 10 mg/kg, iv measured upto 24 hrs by LC-MS analysis; type: ADME, organism-based; details: in vivo
Erythrocyte [8] = assay: Hemolytic activity in human RBC at greater than MIC measured for 2 to 4 hrs by absorbance based assay; type: toxicity, cell-based; details: time 2-4 hrs
Acinetobacter baumannii [9] = assay: Antibiofilm activity against Acinetobacter baumannii assessed as biofilm eradication at 0.016 mmol/L incubated for 24 hrs by crystal violet staining based analysis relative to control; type: functional
[10] = MRT (0 to t) in Kunming mouse at 10 mg/kg, po measured upto 24 hrs by LC-MS analysis; type: ADME, organism-based; details: in vivo
[11] = Volume of distribution at steady state in Kunming mouse at 10 mg/kg, iv measured upto 24 hrs by LC-MS analysis; type: ADME, organism-based; details: in vivo, read-out: Vdss
Staphylococcus aureus [12] = assay: Antibacterial activity against Staphylococcus aureus ATCC 25923 assessed as bacterial growth inhibition incubated for 24 hrs by broth microdilution method; type: functional
Acinetobacter baumannii [13] = assay: Antibacterial activity against Acinetobacter baumannii assessed as bacterial growth inhibition incubated for 24 hrs by broth microdilution method; type: functional
[14] = Hemolytic activity in human RBC at effective concentration measured after 1 hr by absorbance based assay relative to control; type: toxicity, cell-based, Erythrocyte; details: red blood cells (erythrocytes), read-out: Activity
[15] = AUC (0 to t) in Kunming mouse at 10 mg/kg, po measured upto 24 hrs by LC-MS analysis; type: ADME, organism-based; set-up: time < 24 hrs, dose 10 mg/kg, route po; details: in vivo
Staphylococcus aureus [16] = assay: Antibacterial activity against methicillin-resistant Staphylococcus aureus assessed as bacterial growth inhibition incubated for 24 hrs by broth microdilution method; type: functional
[17] = MRT (0 to t) in Kunming mouse at 10 mg/kg, iv measured upto 24 hrs by LC-MS analysis; type: ADME, organism-based; details: in vivo
Escherichia coli = assay: Antibacterial activity against Escherichia coli ATCC 25922 assessed as bacterial growth inhibition incubated for 24 hrs by broth microdilution method; type: functional
[18] = AUMC (0 to infinity) in Kunming mouse at 10 mg/kg, iv measured upto 24 hrs by LC-MS analysis; type: ADME, organism-based; details: in vivo
[19] = AUC (0 to infinity) in Kunming mouse at 10 mg/kg, iv measured upto 24 hrs by LC-MS analysis; type: ADME, organism-based; set-up: dose 10 mg/kg, time < 24 hrs, route iv; details: in vivo
Pseudomonas aeruginosa [20] = assay: Antibacterial activity against Pseudomonas aeruginosa assessed as bacterial growth inhibition incubated for 24 hrs by broth microdilution method; type: functional
Calf thymus DNA [21] = assay: Induction of calf thymus DNA cleavage at 0.05 mmol/L incubated for 6 hrs in presence of Cu(NO3)2 by agarose gel electrophoresis method; type: nucleic-acid assay; details: Bos taurus
[22] = MRT (0 to infinity) in Kunming mouse at 10 mg/kg, po measured upto 24 hrs by LC-MS analysis; type: ADME, organism-based; details: in vivo
[23] = Oral bioavailability in Kunming mouse at 10 mg/kg measured upto 24 hrs by LC-MS analysis; type: ADME, organism-based; details: in vivo
[24] = Tmax in Kunming mouse at 10 mg/kg, po measured upto 24 hrs by LC-MS analysis; type: ADME, organism-based; details: in vivo
Acinetobacter baumannii [25] = assay: Antibacterial activity against Acinetobacter baumannii infected in mouse assessed as log reduction in viable bacterial count at 10 mg/kg measured for 12 hrs; type: functional
[26] = Clearance in Kunming mouse at 10 mg/kg, po measured upto 24 hrs by LC-MS analysis; type: ADME, organism-based; details: in vivo
Acinetobacter baumannii [27] = assay: Antibiofilm activity against Acinetobacter baumannii assessed as increase in biofilm eradication incubated for 24 hrs by crystal violet staining based analysis; type: functional, organism-based
Staphylococcus aureus [28] = assay: Antibacterial activity against Staphylococcus aureus ATCC 29213 assessed as bacterial growth inhibition incubated for 24 hrs by broth microdilution method; type: functional
Cell membrane = assay: Induction of inner membrane damage in Acinetobacter baumannii at 1 to 8 times MIC incubated for 30 mins by fluorescence based assay
Erythrocyte [29] = assay: Hemolytic activity against human RBC assessed as change in cell morphology at 512 times MIC measured after 8 hrs by microscopic analysis; type: toxicity, cell-based
[30] = Volume of distribution in Kunming mouse at 10 mg/kg, po measured upto 24 hrs by LC-MS analysis; type: ADME, organism-based; details: in vivo
[31] = Hemolytic activity in human RBC at 512 times MIC measured after 8 hrs by absorbance based assay relative to control; type: toxicity, cell-based, Erythrocyte; details: red blood cells (erythrocytes), read-out: Activity
Calf thymus DNA [32] = assay: Binding affinity to calf thymus DNA incubated for 5 mins by DAPI displacement assay; type: nucleic-acid assay; details: Bos taurus
[33] = AUC (0 to infinity) in Kunming mouse at 10 mg/kg, po measured upto 24 hrs by LC-MS analysis; type: ADME, organism-based; set-up: dose 10 mg/kg, time < 24 hrs, route po; details: in vivo
Acinetobacter baumannii [34] = assay: Antibacterial activity against Acinetobacter baumannii assessed as reduction in metabolic activity incubated for 6 hrs by alamar blue staining based assay; type: functional, organism-based
Calf thymus DNA [35] = assay: Binding affinity to calf thymus DNA incubated for 5 mins by acridine orange displacement assay; type: nucleic-acid assay; details: Bos taurus
Calf thymus DNA [36] = assay: Induction of calf thymus DNA cleavage at 0.05 mmol/L incubated for 6 hrs by agarose gel electrophoresis method; type: nucleic-acid assay; details: Bos taurus
[37] = Hemolytic activity in human RBC assessed as cell viability upto 256 ug/ml measured for 1 to 8 hrs by absorbance based assay relative to control; type: toxicity, Erythrocyte; details: red blood cells (erythrocytes), time 1-8 hrs, dose < 256 µg/ml, read-out: Activity
Acinetobacter baumannii [38] = assay: Antibacterial activity against Acinetobacter baumannii assessed as decrease in LDH activity incubated for 6 hrs by LDH assay; type: functional, organism-based
[39] = Cytotoxicity against HEK293T cells assessed as cell viability at 0.256 mmol/L measured after 24 hrs by MTT assay relative to control; type: toxicity, cell-based, HEK-293T; details: human, read-out: Activity
[40] = Cytotoxicity against human L02 cells assessed as cell viability upto 0.128 mmol/L measured after 24 hrs by MTT assay relative to control; type: toxicity, cell-based; details: up to 0.128 mM, read-out: Activity
[41] = Tmax in Kunming mouse at 10 mg/kg, iv measured upto 24 hrs by LC-MS analysis; type: ADME, organism-based; details: in vivo
Enterococcus faecalis = assay: Antibacterial activity against Enterococcus faecalis assessed as bacterial growth inhibition incubated for 24 hrs by broth microdilution method; type: functional
[42] = Half life in Kunming mouse at 10 mg/kg, iv measured upto 24 hrs by LC-MS analysis; type: ADME, organism-based; details: in vivo
[43] = Cmax in Kunming mouse at 10 mg/kg, po measured upto 24 hrs by LC-MS analysis; type: ADME, organism-based; set-up: time < 24 hrs, dose 10 mg/kg, route po; details: in vivo
[44] = Cytotoxicity against human L02 cells assessed as cell viability at effective concentration measured after 24 hrs by MTT assay relative to control; type: toxicity, cell-based; details: read-out: Activity

## OCCN(CCO)c1nccc(-n2cncn2)n1
[1]
  MRT inf: 3.98 h
[2]
  Cmax: 1.99 µg/mL
[3]
  C0 at 24 h: 2.59 µg/mL
Pseudomonas aeruginosa [4]
  MIC: 512 µM (≈ 128 µg/mL)
[5]
  AUMC: 37723 hr.hr.ng/ml
[6]
  half-life: 4.39 h
[7]
  AUMCt: 5446 hr.hr.ng/ml
Erythrocyte [8]
  Activity: Non-Toxic
Acinetobacter baumannii [9]
  Activity: 39.1%
[10]
  MRT last at 24 h: 3.97 h
[11]
  Vd: 2.1 L/kg
Staphylococcus aureus [12]
  MIC: 128 µM (≈ 32 µg/mL)
Acinetobacter baumannii [13]
  MIC: 2 µM (≈ 0.501 µg/mL)
[14]
  hemolysis at 1 h: < 5%
[15]
  AUC(0-t) at 24 h: 7.87 µg·h/mL
Staphylococcus aureus [16]
  MIC: 1020 µM (≈ 256 µg/mL)
[17]
  MRT last at 24 h: 2.61 h
Escherichia coli
  MIC: 1 µM (≈ 0.25 µg/mL)
[18]
  AUMC: 8598 hr.hr.ng/ml
[19]
  AUC: 2.281 µg·h/mL
Pseudomonas aeruginosa [20]
  MIC: 1 µM (≈ 0.25 µg/mL)
Calf thymus DNA [21]
  Activity: inactive
[22]
  MRT inf: 4.67 h
[23]
  F: 35.41%
[24]
  Tmax: 0.58 h
Acinetobacter baumannii [25]
  log(activity): 1.6
[26]
  CL/F: 1.24 L/h/kg
Acinetobacter baumannii [27]
  Activity: Dose-Dependent Effect
Staphylococcus aureus [28]
  MIC: 1020 µM (≈ 256 µg/mL)
Cell membrane
  Activity: inactive
Erythrocyte [29]
  Activity: Non-Toxic
[30]
  Vd: 7.89 L/kg
[31]
  hemolysis at 8 h, 512 times MIC: 1.5%
Calf thymus DNA [32]
  Activity: Dose-Dependent Effect
[33]
  AUC: 8.073 µg·h/mL
Acinetobacter baumannii [34]
  Activity: Dose-Dependent Effect
Calf thymus DNA [35]
  Activity: inactive
Calf thymus DNA [36]
  Activity: inactive
[37]
  viability: > 99%
Acinetobacter baumannii [38]
  Activity: Dose-Dependent Effect
[39]
  viability at 24 h, 256 µM: 80%
[40]
  viability at 24 h: 85%
[41]
  Tmax: 1.98 min
Enterococcus faecalis
  MIC: 8 µM (≈ 2 µg/mL)
[42]
  half-life: 2.79 h
[43]
  Cmax: 2.13 µg/mL
[44]
  viability at 24 h: > 75%
